# Data published in US9724366B2, “CD11 B[low] macrophages and conditioned media thereof for treating cancer and/or fibrosis” (CARMEL-HAIFA UNIVRSITY ECONOMIC CORPORATION LTD., priority 2012, dated 2017).
# Legend:
# MEFs = test: Apoptosis detection in MEFs by TUNEL; format: cell-based, mouse; details: 1.5 μg/ml, 4 hours, positive control
# Procedure: MEF cell line were cultured as described above in 8 well chamber glass slides, fixed with 4% PFA containing 5% sucrose and incubated for 1 hour with a mixture of TUNEL reaction mix according to the manufacturer's protocol (In Situ Cell death Detection Kit; TMR Red) covered with aluminum foil and placed in the 37° C., 5% CO2 incubator for 1 hour. Next, the slides were washed three times with PBS for 15 minutes each, and mounted with VECTASHIELD mounting medium with DAPI. The slides were imaged using a Nikon A1-R confocal laser scanning microscope (University of Haifa, Haifa, Israel).
# 3 images were captured from each well. Each captured frame was analyzed using NIS-Elements AR software to measure in the defined area the number of cells with positive DAPI staining, co-staining for DAPI and TUNEL (selected cells were larger than 8 μm), or Col-I expression by measuring sum intensity of area stained for Col-I per captured field.
# Next we explored whether the inhibition of MEF proliferation by the CM-Mres was due to cell cycle arrest or increase in apoptosis of MEF. Therefore, we tested apoptosis of the MEFs at 48 hours. Therefore, MEFs were either untreated or were induced to differentiate on 8 chamber glass slides and were pre-incubated with CM-Mres 1 hour prior to adding TGFβ1. […] The cells were fixed and evaluated for apoptotic death by TUNEL staining. […]
# [1] = test system: macrophages recovered from peritoneal exudates; test: Ex vivo macrophage switch to the CD11b^low phenotype by pro-resolving lipid mediators (flow cytometry); format: cell-based, mice; details: mediators 50 nM, Dex 25 μg/ml
# Procedure: FIG. 8 show promotion of macrophage switch to the CD11b^low phenotype by pro-resolving lipid mediators. Macrophages were recovered from peritoneal exudates 72 hrs post peritonitis initiation and incubated overnight with vehicle (RPMI 10% FBS+0.05% ethanol), RvD1, RvD2, PD1, LXB4, or 15-epi-LXA4, (all at 50 nM), apoptotic cells (M/N ratio of 1:5), or Dex (25 μg/ml). Then, the cells were stained for CD11b and analyzed by flow cytometry, and the percentage of CD11b^low (A) and CD11b^high (B) macrophages was determined. Results are mean±SE of two experiments (n=2). #P<0.005, $ P<0.01, * P<0.05 compared to vehicle.
# Macrophages were recovered from peritoneal exudates 72 hrs post peritonitis initiation and incubated overnight with either RPMI 10% FBS+0.05% ethanol, the resolvins RvD1 or RvD2, […] PD1 or lipoxins LXB4, or 15-epi-LXA4, (all at 50 nM), apoptotic cells (M/N ratio of 1:5), or Dex (25 μg/ml). After 20 hours, the cells were stained for CD11b and analyzed by flow cytometry.
# [2] = test system: peritonitis-affected mice; test: Murine zymosan A peritonitis, RvD1, RvE1 or Dex introduced into the peritoneum; format: in vivo; details: for appearance of CD11b^low macrophages in peritoneal exudates, increases over vehicle treatment: RvD1, RvE1 100 ng/mouse, Dex 25 mg/mouse into peritoneum 48 h after peritonitis initiation, exudates at 66 h; for neutrophil numbers: peritoneal exudates
# Procedure: Male C57BL/6 mice (6-8 wk) were injected intraperitionealy (I.P) with zymosan A (1 mg). 66 hours post zymosan A injection, the mice were euthanized by CO2, their peritoneal cavity was lavaged with 5 ml of phosphate buffered saline (PBS) and the peritoneal exudates were collected by centrifugation for further analysis and experimentation.
# Peritoneal exudates were collected and exudate cells were stained with FITC-conjugated rat anti-mouse Ly-6G, PE-conjugated rat anti-mouse F4/80, and PerCP-conjugated rat anti-mouse CD11b (Biolegend) and analyzed by FACSCalibur (Beckton-Dickinson). Macrophages were isolated using EasySep PE selection magnetic beads following the manufacturer's instructions (StemCell Technologies).
# In some experiments, the macrophages were sorted to CD11b^high and CD11b^low populations of >95% purity, using FACSaria (Beckton-Dickinson), and the separate populations were used for microscopic analysis and for ex vivo stimulation. In some experiments, PKH2-PCL green (0.25 mM, 0.5 mL) was injected I.P at 48 h and peritoneal cells were recovered 4 h later, immunostained for F4/80 and CD11b as above and analyzed for fluorescence intensity of different macrophage populations. In relevant experiments, vehicle, RvD1, RvE1 (100 ng/mouse each), or Dex (25 mg/mouse) were introduced to the peritoneum 48 h after peritonitis initiation, and the exudates were recovered after 66 h and analyzed as before.
# Exudate cells or sorted CD11b^high and CD11b^low macrophages were stained with Hoechst, and enumerated under a fluorescent microscope (Zeiss). Two areas of two cover slips, each containing at least 50 (overall 200) macrophages were analyzed, and the average number of PMN engulfed per macrophage as well as the number of macrophages with cutoff numbers of engulfed PMN, were calculated.
# Similar properties were attributed to glucocorticoids, such as dexamethasone (Dex), that inhibit leukocyte infiltration to inflammation sites and promote the clearance of apoptotic PMN by macrophages. To determine whether pro-resolving mediators regulate emergence of CD11b^low macrophages and thereby promote resolution, RvD1, RvE1, or Dex were introduced into peritonitis-affected mice, and the recovered leukocytes were collected and analyzed for macrophage and neutrophil numbers, macrophage CD11b expression, engulfment of PMN, and responsiveness to LPS. The results are presented in FIG. 8 of Schif-Zuck et al., 2011, which is incorporated herein by reference. […] In addition, RvD1, RvE1 and Dex enhanced the appearance of CD11b^low macrophages (32.8±8.8%, 46.2±1.8%, and 39.9±4.6% increases over vehicle treatment, for RvD1, RvE1, and Dex, respectively) in peritoneal exudates. […] To determine whether RvD1, RvE1, and Dex regulate apoptotic PMN engulfment by macrophages during resolution, exudate cells were enumerated for PMN engulfment and analyzed as in FIG. 2.
# macrophages = test: Cytokine secretion (ELISA) of macrophages from treated mice, unstimulated or activated with LPS; format: cell-based; details: unstimulated and LPS-stimulated macrophages
# Procedure: Exudate macrophages were sorted or separated using PE selection magnetic beads (StemCell Technologies) and incubated (1×10^6 cells in 0.5 mL of culture media) with LPS (0-1000 ng/mL), poly (I:C) (4 μg/mL), or CpG-ODN (1 μM). After 16 h, the supernatants were collected and their TNF-α, IL-β, IL-10, TGFβ, CCL2, CCL3, and CCL5 contents were determined by standard ELISA.
# To validate the improvement in immune-silencing of macrophages that followed treatment with RvD1, RvE1 and Dex, macrophages were activated with LPS, and cytokine secretion was determined. […] Thus, treatment with RvD1, RvE1, and Dex, promoted macrophage immune-silencing, as well as the secretion of pro-resolving cytokines from these cells.
smiles,measurement,setting,value
CN[C@@H]1C[C@H]2O[C@@](C)([C@@H]1OC)n1c3ccccc3c3c4c(c5c6ccccc6n2c5c31)C(=O)NC4 [staurosporine],percentage of apoptotic cells (TUNEL),MEFs,no significant changes
CC/C=C\C[C@H](O)\C=C/C=C/C=C/[C@H](O)C/C=C\C/C=C\CCC(=O)O [PD1],macrophage switch to the CD11b^low phenotype,[1],promotes macrophage switch
"CC[C@@H](O)/C=C/C=C\C[C@@H](O)/C=C/C=C/C=C\[C@@H](O)CCCC(=O)O [RvE1, 5S,12R,18R-trihydroxy-4Z,8E,10E,14Z,16E-eico sapentaenoic acid]","appearance of CD11b^low macrophages in peritoneal exudates, increases over vehicle treatment",[2],46.2±1.8%
same,CD11b expression on CD11b^high macrophages,"[2]; mouse, in vivo",reduced
same,appearance in the peritoneum of low-engulfing macrophages (less than 2 N/M),"[2]; mouse, in vivo",induced
same,neutrophil numbers,[2],induced a reduction
same,secretion of TNFα,macrophages,inhibited
"C[C@@H]1C[C@H]2[C@@H]3CCC4=CC(=O)C=C[C@]4(C)[C@@]3(F)[C@@H](O)C[C@]2(C)[C@@]1(O)C(=O)CO [Dex, dexamethasone]","appearance of CD11b^low macrophages in peritoneal exudates, increases over vehicle treatment",[2],39.9±4.6%
"CC/C=C\C[C@H](O)/C=C/C=C\C=C\C=C\[C@@H](O)[C@@H](O)C/C=C\CCC(=O)O [RvD1, 7S,8R,17S-trihydroxy-4Z,9E,11E,13Z,15E,19Z-docosahexaenoic acid]","appearance of CD11b^low macrophages in peritoneal exudates, increases over vehicle treatment",[2],32.8±8.8%
same,CD11b expression on CD11b^high macrophages,"[2]; mouse, in vivo",reduced
same,number of macrophages in peritoneal cavities,"[2]; mouse, in vivo",reduced
same,numbers of apoptotic PMN engulfed by macrophages present in the peritoneum,"[2]; mouse, in vivo",reduced
same,neutrophil numbers,[2],induced a reduction
same,secretion of TNFα,macrophages,inhibited
same,macrophage switch to the CD11b^low phenotype,[1],promotes macrophage switch
CCCCC[C@H](O)[C@H](O)/C=C/C=C/C=C\C=C\[C@@H](O)CCCC(=O)O [LXB4],macrophage switch to the CD11b^low phenotype,[1],promotes macrophage switch
CC/C=C\C[C@H](O)[C@H](O)/C=C/C=C/C=C\C=C\[C@@H](O)C/C=C\CCC(=O)O [RvD2],macrophage switch to the CD11b^low phenotype,[1],promotes macrophage switch
CCCCC[C@@H](O)/C=C/C=C\C=C\C=C\[C@@H](O)[C@@H](O)CCCC(=O)O [15-epi-LXA4],macrophage switch to the CD11b^low phenotype,[1],promotes macrophage switch
